Source: the NIST ThermoML archive (doi:10.1021/acs.jced.6b00526)
Numbers after ± are expanded uncertainties.

Key:
[1] = 100 kPa; for viscosity: Falling or rolling sphere viscometry; for mass density: Vibrating tube method
[2] = refractive index (Na D-line) (dimensionless); conditions: 100 kPa, Standard Abbe refractometry
[3] = refractive index (Na D-line) (dimensionless); xn = mol fraction of the nth substance listed; conditions: 100 kPa, Liquid, Standard Abbe refractometry, x1 = 1
[4] = xn = mol fraction of the nth substance listed; conditions: 100 kPa, Liquid, x1 = 1; for mass density: Vibrating tube method; for viscosity: Falling or rolling sphere viscometry

Compound | viscosity ([1]; 293.15 K, Liquid) [mPa·s] | mass density ([1]; 293.15 K, Liquid) [kg/m3] | viscosity ([1]; 298.15 K, Liquid) [mPa·s] | viscosity ([1]; 303.15 K, Liquid) [mPa·s] | refractive index ([2]; 288.15 K, Liquid) | refractive index ([2]; 293.15 K, Liquid) | refractive index ([2]; 298.15 K, Liquid) | refractive index ([2]; 303.15 K, Liquid) | refractive index ([2]; 308.15 K, Liquid) | refractive index ([2]; 313.15 K, Liquid) | refractive index ([2]; 318.15 K, Liquid) | refractive index ([3]; 288.15 K) | refractive index ([3]; 293.15 K) | refractive index ([3]; 298.15 K) | refractive index ([3]; 303.15 K) | refractive index ([3]; 308.15 K) | refractive index ([3]; 313.15 K) | refractive index ([3]; 318.15 K) | mass density ([4]; 288.15 K) [kg/m3] | viscosity ([4]; 293.15 K) [mPa·s] | other results
OCCO [1,2-ethanediol] | 21.13 ± 3.4 | 1113.3 ± 4.5 | 17.24 ± 2.8 | 14.23 ± 2.3 | 1.432 ± 0.029 | 1.4306 ± 0.029 | 1.4294 ± 0.029 | 1.4282 ± 0.029 | 1.4269 ± 0.029 | 1.4257 ± 0.029 | 1.4244 ± 0.029 |  |  |  |  |  |  |  |  |  | mass density ([1]; 303.15 K, Liquid): 1106.8 ± 4.4 kg/m3; mass density ([1]; 313.15 K, Liquid): 1099.1 ± 4.4 kg/m3
OCCCCO [1,4-butanediol] |  |  |  |  |  |  |  |  |  |  |  |  |  |  |  |  |  |  |  |  | mass density ([1]; 288.15 K, Metastable liquid): 1018.6 ± 4.1 kg/m3; viscosity ([1]; 293.15 K, Metastable liquid): 90.7 ± 15 mPa·s; mass density ([1]; 293.15 K, Metastable liquid): 1016.3 ± 4.1 kg/m3; viscosity ([1]; 298.15 K, Metastable liquid): 69.89 ± 11 mPa·s; mass density ([1]; 298.15 K, Metastable liquid): 1012.9 ± 4.1 kg/m3; viscosity ([1]; 303.15 K, Metastable liquid): 55.24 ± 8.8 mPa·s; mass density ([1]; 303.15 K, Metastable liquid): 1009.9 ± 4 kg/m3; mass density ([1]; 308.15 K, Metastable liquid): 1006.9 ± 4 kg/m3; mass density ([1]; 313.15 K, Metastable liquid): 1003.2 ± 4 kg/m3; mass density ([1]; 318.15 K, Metastable liquid): 1000.8 ± 4 kg/m3; refractive index ([2]; 288.15 K, Metastable liquid): 1.447 ± 0.029; refractive index ([2]; 293.15 K, Metastable liquid): 1.4455 ± 0.029; refractive index ([2]; 298.15 K, Metastable liquid): 1.4441 ± 0.029; refractive index ([2]; 303.15 K, Metastable liquid): 1.4426 ± 0.029; refractive index ([2]; 308.15 K, Metastable liquid): 1.4412 ± 0.029; refractive index ([2]; 313.15 K, Metastable liquid): 1.4398 ± 0.029; refractive index ([2]; 318.15 K, Metastable liquid): 1.4384 ± 0.029
OCCCCCO [1,5-pentanediol] | 118.7 ± 19 | 989.2 ± 4 | 86.79 ± 14 | 68.3 ± 11 | 1.4503 ± 0.029 | 1.449 ± 0.029 | 1.4478 ± 0.029 | 1.4466 ± 0.029 | 1.4454 ± 0.029 | 1.4441 ± 0.029 | 1.443 ± 0.029 |  |  |  |  |  |  |  |  |  | mass density ([1]; 288.15 K, Liquid): 992.2 ± 4 kg/m3; mass density ([1]; 298.15 K, Liquid): 986.2 ± 4 kg/m3; mass density ([1]; 303.15 K, Liquid): 983.2 ± 4 kg/m3; mass density ([1]; 308.15 K, Liquid): 980.3 ± 4 kg/m3; mass density ([1]; 313.15 K, Liquid): 977.4 ± 4 kg/m3; mass density ([1]; 318.15 K, Liquid): 974.8 ± 4 kg/m3
OCCCO [propan-1,3-diol] | 51.55 ± 8.3 | 1053.2 ± 4.3 | 40.8 ± 6.5 | 32.74 ± 5.3 | 1.4407 ± 0.029 | 1.4393 ± 0.029 | 1.438 ± 0.029 | 1.4367 ± 0.029 | 1.4353 ± 0.029 | 1.434 ± 0.029 | 1.4327 ± 0.029 |  |  |  |  |  |  |  |  |  | mass density ([1]; 288.15 K, Liquid): 1056.2 ± 4.3 kg/m3; mass density ([1]; 298.15 K, Liquid): 1049.9 ± 4.3 kg/m3; mass density ([1]; 303.15 K, Liquid): 1046.7 ± 4.3 kg/m3; mass density ([1]; 308.15 K, Liquid): 1043.5 ± 4.3 kg/m3; mass density ([1]; 313.15 K, Liquid): 1040.4 ± 4.2 kg/m3; mass density ([1]; 318.15 K, Liquid): 1037.9 ± 4.2 kg/m3
O [water] | 0.949 ± 0.15 | 998.3 ± 4 | 0.843 ± 0.14 | 0.755 ± 0.12 | 1.3338 ± 0.027 | 1.3331 ± 0.027 | 1.3325 ± 0.027 | 1.3318 ± 0.027 | 1.3312 ± 0.027 | 1.3305 ± 0.027 | 1.3299 ± 0.027 |  |  |  |  |  |  |  |  |  | mass density ([1]; 288.15 K, Liquid): 999.2 ± 4 kg/m3; mass density ([1]; 318.15 K, Liquid): 990.8 ± 4 kg/m3
O [water] + OCCCCCO |  |  |  |  |  |  |  |  |  |  |  | 1.3338 ± 0.027 | 1.3331 ± 0.027 | 1.3325 ± 0.027 | 1.3318 ± 0.027 | 1.3312 ± 0.027 | 1.3305 ± 0.027 | 1.3299 ± 0.027 | 999.2 ± 4 | 0.949 ± 0.15 | mass density ([4]; 293.15 K): 998.3 ± 4 kg/m3; viscosity ([4]; 298.15 K): 0.843 ± 0.14 mPa·s; viscosity ([4]; 303.15 K): 0.755 ± 0.12 mPa·s; mass density ([4]; 318.15 K): 990.8 ± 4 kg/m3
O [water] + OCCCCO |  |  |  |  |  |  |  |  |  |  |  | 1.3338 ± 0.027 | 1.3331 ± 0.027 | 1.3325 ± 0.027 | 1.3318 ± 0.027 | 1.3312 ± 0.027 | 1.3305 ± 0.027 | 1.3299 ± 0.027 | 999.2 ± 4 | 0.949 ± 0.15 | mass density ([4]; 293.15 K): 998.3 ± 4 kg/m3; viscosity ([4]; 298.15 K): 0.843 ± 0.14 mPa·s; viscosity ([4]; 303.15 K): 0.755 ± 0.12 mPa·s; mass density ([4]; 318.15 K): 990.8 ± 4 kg/m3
O [water] + OCCCO |  |  |  |  |  |  |  |  |  |  |  | 1.3338 ± 0.027 | 1.3331 ± 0.027 | 1.3325 ± 0.027 | 1.3318 ± 0.027 | 1.3312 ± 0.027 | 1.3305 ± 0.027 | 1.3299 ± 0.027 | 999.2 ± 4 | 0.949 ± 0.15 | mass density ([4]; 293.15 K): 998.3 ± 4 kg/m3; viscosity ([4]; 298.15 K): 0.843 ± 0.14 mPa·s; viscosity ([4]; 303.15 K): 0.755 ± 0.12 mPa·s; mass density ([4]; 318.15 K): 990.8 ± 4 kg/m3
O [water] + OCCO |  |  |  |  |  |  |  |  |  |  |  | 1.3338 ± 0.027 | 1.3331 ± 0.027 | 1.3325 ± 0.027 | 1.3318 ± 0.027 | 1.3312 ± 0.027 | 1.3305 ± 0.027 | 1.3299 ± 0.027 | 999.2 ± 4 | 0.949 ± 0.15 | mass density ([4]; 293.15 K): 998.3 ± 4 kg/m3; viscosity ([4]; 298.15 K): 0.843 ± 0.14 mPa·s; viscosity ([4]; 303.15 K): 0.755 ± 0.12 mPa·s; mass density ([4]; 318.15 K): 990.8 ± 4 kg/m3
